Source: patent US20160311788A1, “Antifouling Compounds And Use Thereof” (National University of Singapore, priority 2008, published 2016)
Structures can show the parent of a compound that is named as a salt.

What was measured:
[1] = cited from earlier work
[2] = tested on: marine bacteria strain S1; assay: disc inhibition assay, strain S1; assay type: cell-based, Rhodovulum iodosum
Outline: (§1)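 Compounds were applied at 50 μg per 6 mm disc (from 2 mg/ml DMSO stock; DMSO control) onto lawns of Singapore coastal fouling bacteria on marine agar. After overnight incubation in the dark at 35 °C, inhibition-zone diameters were caliper-measured; mean of two replicates.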

[3] = tested on: marine bacteria strain S3; assay: disc inhibition assay, strain S3; assay type: cell-based, Erythrobacter aquimaris
Outline: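 Disc inhibition assay against a marine bacterial strain isolated from fouling communities in Singapore coastal waters. The strain was grown in marine broth and swabbed over Marine Agar plates as a lawn. 6 mm sterile discs loaded with compound in DMSO, or DMSO controls, were placed on the plates and incubated overnight in the dark at 35° C.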

[4] = tested on: marine bacteria strain S4; assay: disc inhibition assay, strain S4; assay type: cell-based, Bacillus algicola; details: Guptibacillus algicola, S4, 24 h
Outline: as §1

[5] = tested on: marine bacteria strain S9; assay: disc inhibition assay, strain S9; assay type: cell-based, Bacillus algicola; details: Guptibacillus algicola, S9, 24 h
Outline: as §1

[6] = tested on: marine bacteria strain S10; assay: disc inhibition assay, strain S10; assay type: cell-based, Halobacillus trueperi; details: Halobacillus trueperi, S10, 24 h
Outline: as §1

[7] = tested on: marine bacteria strain S14; assay: disc inhibition assay, strain S14; assay type: cell-based, Vibrio probioticus
[8] = tested on: marine bacteria strain S16; assay: disc inhibition assay, strain S16; assay type: cell-based, Pseudoalteromonas piscicida
Outline: as §1

[9] = tested on: marine bacteria strain S17; assay: disc inhibition assay, strain S17; assay type: cell-based, Gordonia terrae
Outline: as §1

[10] = tested on: marine bacteria strain S18; assay: disc inhibition assay, strain S18; assay type: cell-based, Microbacterium esteraromaticum
[11] = tested on: marine bacteria strain S27; assay: disc inhibition assay, strain S27; assay type: cell-based, Tenacibaculum lutimaris
Outline: as §1

[12] = tested on: marine bacteria strain S28; assay: disc inhibition assay, strain S28; assay type: cell-based, Arthrobacter protophormial
Outline: as §1

[13] = tested on: marine bacteria strain S29; assay: disc inhibition assay, strain S29; assay type: cell-based, Bacillus hwajinpoensis; details: Guptibacillus hwajinpoensis, S29, 24 h
Outline: as §1

[14] = tested on: marine bacteria strain S30; assay: disc inhibition assay, strain S30; assay type: cell-based, Bacillus borophilicus; details: Bacillus, S30, 24 h
Outline: as §1

[15] = tested on: Escherichia coli (Strain K12; ATCC 15222); assay: disc inhibition assay, REF 1; assay type: cell-based
Protocol: (§2) 13 strains of marine bacteria were isolated from fouling communities located in the coastal waters around Singapore. These were characterized in earlier studies and reported in Teo et al. (U.S. patent application Ser. No. 11/265,833) and Choong et al (in prep). In addition, four reference bacterial strains were added tested: Escherichia coli (Strain K12, ATCC 15222), E. coli (strain DH5a), Pseudomonas aeruginosa (strain LMG 12228; ATCC 15692) and P. putida (strain KT2440; ATCC 47054). All the bacteria were also tested against five antibiotics: ampicillin (AMP), tetracycline (TETR), erythromycin (ERY), chloramphenicol (CHL) and streptomycin (STREP).
(§3) Disks comprising the compounds to be tested were prepared as follows. The antibacterial assay, the pure compounds were made up to a concentration of 2 mgml^−1 in DMSO. 25 μl of the stock was pipetted onto each 6 mm sterile disc (Macherey-Nagel #484000) to obtain 50 μg of compound per disc. Equivalent volume of DMSO was used inoculated for the control.
(§4) For all disk inhibition assays, bacterial cultures were grown in marine broth (Pronadisa #1217.00). Sterile swabs dipped into the cultures were used to inoculate Marine Agar plates with a bacterial lawn by smearing the culture over the surface. After inoculating the plates, discs with antibiotics, pharmaceuticals or control blanks were placed on each plate. Each concentration of antibiotic or pharmaceutical was tested with two replicates. After the disks were placed on the agar surface, plates were incubated overnight in the dark at 35° C. After incubation, plates were examined for zones of inhibition or clearing around control and treated disks. The diameter of any zone of clearing or inhibition was measured using Vernier calipers. There were two replicates per treatment, and the average was taken. There was no zone of inhibition around the control blanks in all the assays.

[16] = tested on: Escherichia coli (Strain DH5a); assay: disc inhibition assay, REF 2; assay type: cell-based
Protocol: as §2, §3, §4

[17] = tested on: Pseudomonas aeruginosa (strain LMG 12228; ATCC 15692); assay: disc inhibition assay, REF 3; assay type: cell-based
Protocol: as §2, §3, §4

[18] = tested on: Pseudomonas putida (Strain KT2440; BCRC 10459); assay: disc inhibition assay, REF 4; assay type: cell-based
Protocol: as §2, §3, §4

Q: For `CN(C)C(=O)C(CCN1CCC(O)(c2ccc(Cl)cc2)CC1)(c1ccccc1)c1ccccc1` [Loperamide hydrochloride], which solubility in water [1] is on record?
A: slightly soluble

Q: With `CN(C)[C@@H]1C(O)=C(C(N)=O)C(=O)[C@@]2(O)C(O)=C3C(=O)c4c(O)cccc4[C@@](C)(O)[C@H]3C[C@@H]12` [TETR, Tetracycline, reference compound] as the molecule, how does the zone of inhibition ([2]; strain 1, 5 ug) read?
A: −

Q: What about the zone of inhibition ([2]; strain 1, 30 ug) of the same molecule?
A: −

Q: And the zone of inhibition ([3]; strain 3, 5 ug)?
A: −

Q: And the zone of inhibition ([3]; strain 3, 30 ug)?
A: −

Q: What about the zone of inhibition at 5 µg/disc ([4]; strain 4, 5 ug) of the same molecule?
A: 2 to 5 mm

Q: What about the zone of inhibition at 30 µg/disc ([4]; strain 4, 30 ug) of the same molecule?
A: 5 to 10 mm

Q: What about the zone of inhibition at 5 µg/disc ([5]; strain 9, 5 ug) of the same molecule?
A: 2 to 5 mm

Q: What about the zone of inhibition at 30 µg/disc ([5]; strain 9, 30 ug) of the same molecule?
A: 5 to 10 mm

Q: What about the zone of inhibition at 5 µg/disc ([6]; strain 10, 5 ug) of the same molecule?
A: 2 to 5 mm

Q: What about the zone of inhibition at 30 µg/disc ([6]; strain 10, 30 ug) of the same molecule?
A: 2 to 5 mm

Q: What about the zone of inhibition at 30 µg/disc ([7]; Vibrio, S14, 24 h) of the same molecule?
A: 2 to 5 mm

Q: What about the zone of inhibition ([7]; strain 14, 5 ug) of the same molecule?
A: −

Q: What about the zone of inhibition ([8]; strain 16, 5 ug) of the same molecule?
A: −

Q: What about the zone of inhibition ([8]; strain 16, 30 ug) of the same molecule?
A: −

Q: What about the zone of inhibition ([9]; strain 17, 5 ug) of the same molecule?
A: −

Q: And the zone of inhibition ([9]; strain 17, 30 ug)?
A: −

Q: And the zone of inhibition at 30 µg/disc ([10]; Microbacterium esteraromaticum, S18, 24 h, strain 18, 30 ug)?
A: 2 to 5 mm

Q: What about the zone of inhibition ([10]; strain 18, 5 ug) of the same molecule?
A: −

Q: What about the zone of inhibition at 30 µg/disc ([11]; Tenacibaculum lutimaris, S27, 24 h, strain 27, 30 ug) of the same molecule?
A: 2 to 5 mm

Q: What about the zone of inhibition ([11]; strain 27, 5 ug) of the same molecule?
A: −

Q: And the zone of inhibition at 30 µg/disc ([12]; Arthrobacter, S28, 24 h, strain 28, 30 ug)?
A: 2 to 5 mm

Q: What about the zone of inhibition ([12]; strain 28, 5 ug) of the same molecule?
A: −

Q: What about the zone of inhibition at 5 µg/disc ([13]; strain 29, 5 ug) of the same molecule?
A: 2 to 5 mm

Q: And the zone of inhibition at 30 µg/disc ([13]; strain 29, 30 ug)?
A: 5 to 10 mm

Q: What about the zone of inhibition at 5 µg/disc ([14]; strain 30, 5 ug) of the same molecule?
A: 2 to 5 mm

Q: What about the zone of inhibition at 30 µg/disc ([14]; strain 30, 30 ug) of the same molecule?
A: 2 to 5 mm

Q: What about the zone of inhibition ([15]; REF 1, 5 ug) of the same molecule?
A: + (2-5 mm zone of inhibition around each disk was observed.)

Q: And the zone of inhibition ([15]; REF 1, 30 ug)?
A: ++ (5-10 mm zone was observed.)

Q: And the zone of inhibition ([16]; REF 2, 5 ug)?
A: + (2-5 mm zone of inhibition around each disk was observed.)

Q: And the zone of inhibition ([16]; REF 2, 30 ug)?
A: ++ (5-10 mm zone was observed.)

Q: And the zone of inhibition ([17]; REF 3, 5 ug)?
A: + (2-5 mm zone of inhibition around each disk was observed.)

Q: And the zone of inhibition ([17]; REF 3, 30 ug)?
A: ++ (5-10 mm zone was observed.)

Q: What about the zone of inhibition ([18]; REF 4, 5 ug) of the same molecule?
A: ++ (5-10 mm zone was observed.)

Q: And the zone of inhibition ([18]; REF 4, 30 ug)?
A: ++ (5-10 mm zone was observed.)
